Laboratory results from patent US20050209104A1, “Dinoflagellate karlotoxins, methods of isolation and uses thereof” (priority 2002, published 2005).
In brackets after ≈: the same amount, converted by molar mass.

System: Aspergillus niger (ATCC 1004)
Assay: Anti-fungal broth microdilution assay (filamentous fungi)
Assay type: cell-based
Procedure: The following fungal strains were purchased from the American Type Culture Collection (Manassas, Va.), Aspergillus niger (ATCC 1004) as a representative filamentous fungi, and Candida albicans (ATCC 14053) as a representative yeast. Assays were performed according to the following National Committee for Clinical Laboratory Standards documents; M27-A2 Reference Method for Broth Dilution Antifungal Susceptibility Testing of Yeasts; Approved Standard—Second Edition([NCCLS, 2002), and M38-A Reference Method for Broth Dilution Antifungal Susceptibility Testing of Filamentous Fungi; Approved Standard (NCCLS, 2002). Procedures for the broth microdilution modification were followed for both species with the following exceptions; A. niger stocks were maintained on Potato Dextrose Agar at 25° C., while C. albicans was maintained on Yeast Malt Agar at 28° C., both according to ATCC recommendations. Amphotericin B was used as a positive control. Microdilution assays were performed in HyQ-RPMI-1640 media (HyClone, Logan, Utah.), with 2.05 mM L-glutamine, without sodium bicarbonate, pH 7.2 using dilutions of 1 mg/ml DMSO stocks of KmTx 2 and amphotericin B.
The following concentrations were tested for both KmTx2 and amphotericin B: 0.0625, 0.125, 0.25, 0.5, 1, 2, 4, 8, and 16 μg/ml. A maximum of 1.6% DMSO was added to any given well. Plates were incubated at 25 and 28° C., respectively, for A. niger and C. albicans. […] Amphotericin B and all culture media were purchased from Sigma-Aldrich (St. Louis, Mo.).

Q: `C=C(CC[C@H](O)[C@H]1O[C@H](C[C@@H](O)[C@H](O)[C@H](C)CCC[C@@H](O)[C@H](O)[C@H](O)[C@@H](C)CC[C@@H](O)[C@H](O)[C@H](C)C[C@@H](O)CCC[C@@H](O)CCC[C@@H](O)/C=C/C[C@@H](O)CO)[C@@H](O)[C@@H](O)[C@@H]1O)[C@H](O)[C@H](O)[C@@H]1C[C@H](O)[C@H](O)[C@@H]([C@H](O)[C@@H](O)/C=C/CCCCCCCC/C=C/C=C/Cl)O1` [KmTx 2] was tested. Which “anti-fungal activity, fold lower than for amphotericin B” value (depending on species tested (A. niger, C. albicans)) did it give?
A: 10-100 fold

Q: What about the “Minimal inhibitory concentration (MIC)” value (lowest dose with no growth after 96 hours, 25° C.) of the same compound?
A: 8 µg/mL (≈ 5.94 µM)
